Molecules are shown by their SMILES. Calls of active or inactive are those of the source. The calls are words filed in the database; no cut-off is given here.

For orientation: ED50 means the midpoint of the dose-response relation. As a reminder, the Ki is the dissociation constant of the complex between target and ligand, obtained from inhibition or displacement. A low value points to higher affinity.

The species named for test [1] is Mus musculus. Kind of test: Antinociceptive activity using mouse abdominal constriction test; inactive. To be noted: Abdomen. In kind it is functional, organism-based.
In test [2] the test system is Mus musculus. Kind of test: Antinociceptive activity (100 mg/Kg) was determined using mouse tail flick test. In kind it is functional. A general note: In hot-plate and tail-flick tests a longer latency is read as antinociception.
The test system of test [3] is Mus musculus. The test can be described thus: Antinociceptive activity (50 mg/Kg) was determined using mouse tail flick test. In kind it is functional.
Test [4] has as its system Mus musculus. Kind of test: Antinociceptive activity (10 mg/Kg) was determined using mouse abdominal constriction test. In kind it is functional, Abdomen.
For test [5], the species on record is Mus musculus. The test can be described thus: Antinociceptive activity in mice, determined using abdominal constriction test. In kind it is functional. To be noted: Abdomen.
Test [6] is filed under the species Mus musculus. The test can be described thus: Antinociceptive activity using mouse tail flick test; Inactive. In kind it is functional, organism-based.
The subject of test [7] is Mus musculus. The test can be described thus: Antinociceptive activity in mice following i.p. treatment, determined using tail flick test. In kind it is functional. The following applies: ip.
Test [8] deals with T1, Adrenergic receptor alpha-2 (Rattus norvegicus, UniProt P22086+P19328+P22909).
T1 sequence (P22086 whole entry): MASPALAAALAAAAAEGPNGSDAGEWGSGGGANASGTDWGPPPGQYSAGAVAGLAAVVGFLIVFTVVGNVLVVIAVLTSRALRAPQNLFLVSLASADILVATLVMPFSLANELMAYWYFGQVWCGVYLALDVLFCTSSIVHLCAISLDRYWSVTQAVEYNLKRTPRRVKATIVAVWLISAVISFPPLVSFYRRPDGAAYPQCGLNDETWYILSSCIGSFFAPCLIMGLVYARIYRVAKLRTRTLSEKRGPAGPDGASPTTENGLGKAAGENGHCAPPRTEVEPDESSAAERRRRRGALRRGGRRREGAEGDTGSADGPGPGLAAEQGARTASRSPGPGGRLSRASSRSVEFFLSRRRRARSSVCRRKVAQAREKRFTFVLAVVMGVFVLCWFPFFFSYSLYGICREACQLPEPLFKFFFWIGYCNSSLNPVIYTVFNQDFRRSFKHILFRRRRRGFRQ
T1 sequence (P19328 whole entry): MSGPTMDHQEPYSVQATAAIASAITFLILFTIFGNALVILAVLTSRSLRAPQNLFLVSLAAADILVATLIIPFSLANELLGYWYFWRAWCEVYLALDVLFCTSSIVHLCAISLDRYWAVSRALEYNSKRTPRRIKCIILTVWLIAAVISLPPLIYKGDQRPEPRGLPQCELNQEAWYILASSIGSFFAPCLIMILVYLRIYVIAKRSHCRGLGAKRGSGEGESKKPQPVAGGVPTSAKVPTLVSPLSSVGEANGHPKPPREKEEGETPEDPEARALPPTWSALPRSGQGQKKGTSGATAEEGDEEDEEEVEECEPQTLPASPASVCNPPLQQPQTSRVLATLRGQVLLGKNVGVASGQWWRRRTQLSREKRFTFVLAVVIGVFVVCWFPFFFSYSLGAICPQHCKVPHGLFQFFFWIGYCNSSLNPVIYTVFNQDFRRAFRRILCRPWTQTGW
T1 sequence (P22909 whole entry): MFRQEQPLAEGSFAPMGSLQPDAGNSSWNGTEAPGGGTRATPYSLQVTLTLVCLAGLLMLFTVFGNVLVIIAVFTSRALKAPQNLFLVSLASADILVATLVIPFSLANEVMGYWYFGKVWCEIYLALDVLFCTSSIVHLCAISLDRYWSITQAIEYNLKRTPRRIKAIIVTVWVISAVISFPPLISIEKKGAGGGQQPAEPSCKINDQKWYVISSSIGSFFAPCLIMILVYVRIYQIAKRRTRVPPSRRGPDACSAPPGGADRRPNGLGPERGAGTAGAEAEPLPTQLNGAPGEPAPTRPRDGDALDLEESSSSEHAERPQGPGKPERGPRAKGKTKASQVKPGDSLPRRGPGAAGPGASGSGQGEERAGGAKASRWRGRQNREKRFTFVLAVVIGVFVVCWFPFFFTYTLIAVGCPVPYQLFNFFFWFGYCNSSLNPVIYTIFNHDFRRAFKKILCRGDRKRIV
Kind of test: Inhibitory constant was measured on alpha-2 adrenergic receptor /uptake using [3H] clonidine as radioligand in rat brain cortex. In kind it is tissue-based.

In test [9] the target is Opioid receptor (Rattus norvegicus) (UniProt P33533+P34975+P33535). Kind of test: Inhibitory constant (10 uM) was measured on opioid receptor/uptake using [3H]- naloxone as radioligand in rat whole brain.
Opioid receptor (Rattus norvegicus), sequence (P33533 whole entry, looked up): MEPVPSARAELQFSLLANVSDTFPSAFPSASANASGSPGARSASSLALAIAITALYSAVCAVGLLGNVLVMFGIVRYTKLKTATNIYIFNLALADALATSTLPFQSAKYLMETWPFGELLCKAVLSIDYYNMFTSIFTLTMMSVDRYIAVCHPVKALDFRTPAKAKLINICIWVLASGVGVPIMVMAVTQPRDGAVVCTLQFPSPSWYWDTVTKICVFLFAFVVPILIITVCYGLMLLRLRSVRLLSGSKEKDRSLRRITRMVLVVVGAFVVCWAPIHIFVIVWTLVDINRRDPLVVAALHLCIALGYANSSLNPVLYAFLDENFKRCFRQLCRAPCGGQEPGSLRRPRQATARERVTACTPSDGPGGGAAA
Opioid receptor (Rattus norvegicus), sequence (P33535 whole entry, looked up): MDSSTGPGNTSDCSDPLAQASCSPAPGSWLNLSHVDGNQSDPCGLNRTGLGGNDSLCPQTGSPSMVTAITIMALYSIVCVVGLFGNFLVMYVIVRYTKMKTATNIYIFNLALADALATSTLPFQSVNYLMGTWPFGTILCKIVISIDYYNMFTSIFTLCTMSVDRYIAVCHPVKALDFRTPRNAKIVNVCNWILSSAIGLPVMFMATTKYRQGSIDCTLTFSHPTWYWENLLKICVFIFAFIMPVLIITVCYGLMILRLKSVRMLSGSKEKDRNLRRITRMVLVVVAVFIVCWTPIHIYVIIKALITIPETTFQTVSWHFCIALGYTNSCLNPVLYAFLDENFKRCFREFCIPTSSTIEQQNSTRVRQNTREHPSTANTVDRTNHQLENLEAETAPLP
Opioid receptor (Rattus norvegicus), sequence (P34975 whole entry, looked up): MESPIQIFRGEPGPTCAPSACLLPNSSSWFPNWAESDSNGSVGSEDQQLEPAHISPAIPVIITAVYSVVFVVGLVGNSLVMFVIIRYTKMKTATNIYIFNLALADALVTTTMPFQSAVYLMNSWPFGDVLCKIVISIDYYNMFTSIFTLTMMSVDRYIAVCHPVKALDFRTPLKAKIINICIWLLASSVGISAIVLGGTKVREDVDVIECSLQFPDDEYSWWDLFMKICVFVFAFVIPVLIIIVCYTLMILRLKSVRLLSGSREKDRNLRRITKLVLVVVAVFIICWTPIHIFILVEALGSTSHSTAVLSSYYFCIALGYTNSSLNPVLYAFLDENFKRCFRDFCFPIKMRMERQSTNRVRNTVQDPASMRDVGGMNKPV
Test [10] deals with Serotonin 1 (5-HT1) receptor (Rattus norvegicus) (UniProt P28564+P30940+P19327+P28565). The test can be described thus: Inhibition constant (1 uM) was measured on 5-hydroxytryptamine 1 receptor/uptake using [3H]- serotonin as radioligand in rat brain cortex. In kind it is tissue-based.
The target of test [11] is Serotonin 2 (5-HT2) receptor (Rattus norvegicus) (UniProt P30994+P08909+P14842). Kind of test: Inhibitory constant (1 uM) was measured on 5-hydroxytryptamine 2 receptor/uptake using [3H]- ketanserin as radioligand in rat brain cortex. In kind it is tissue-based.
Serotonin 2 (5-HT2) receptor (Rattus norvegicus), sequence (P08909 whole entry, looked up): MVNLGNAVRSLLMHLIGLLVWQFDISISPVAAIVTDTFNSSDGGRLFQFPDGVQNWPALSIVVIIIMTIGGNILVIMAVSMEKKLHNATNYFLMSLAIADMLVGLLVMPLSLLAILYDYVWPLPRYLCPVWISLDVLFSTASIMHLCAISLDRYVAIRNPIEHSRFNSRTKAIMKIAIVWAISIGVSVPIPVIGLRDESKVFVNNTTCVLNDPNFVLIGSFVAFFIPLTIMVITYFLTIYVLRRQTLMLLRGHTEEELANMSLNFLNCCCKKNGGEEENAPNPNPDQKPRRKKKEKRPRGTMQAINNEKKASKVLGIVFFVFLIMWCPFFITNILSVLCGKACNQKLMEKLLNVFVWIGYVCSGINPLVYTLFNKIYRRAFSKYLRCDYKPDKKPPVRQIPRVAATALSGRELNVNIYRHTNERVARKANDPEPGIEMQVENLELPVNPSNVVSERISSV
Serotonin 2 (5-HT2) receptor (Rattus norvegicus), sequence (P14842 whole entry, looked up): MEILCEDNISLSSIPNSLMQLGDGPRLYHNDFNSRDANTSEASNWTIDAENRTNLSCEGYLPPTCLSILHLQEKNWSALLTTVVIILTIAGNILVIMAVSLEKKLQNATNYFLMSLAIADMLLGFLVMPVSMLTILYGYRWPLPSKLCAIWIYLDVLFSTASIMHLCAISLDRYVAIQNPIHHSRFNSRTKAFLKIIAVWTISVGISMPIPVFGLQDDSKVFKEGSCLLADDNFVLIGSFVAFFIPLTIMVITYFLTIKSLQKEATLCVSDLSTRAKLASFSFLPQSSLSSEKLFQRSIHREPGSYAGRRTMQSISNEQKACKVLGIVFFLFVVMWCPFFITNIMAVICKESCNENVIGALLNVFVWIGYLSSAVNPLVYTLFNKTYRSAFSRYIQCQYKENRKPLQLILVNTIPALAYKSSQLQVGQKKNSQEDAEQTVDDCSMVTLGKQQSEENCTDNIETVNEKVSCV
Serotonin 2 (5-HT2) receptor (Rattus norvegicus), sequence (P30994 whole entry, looked up): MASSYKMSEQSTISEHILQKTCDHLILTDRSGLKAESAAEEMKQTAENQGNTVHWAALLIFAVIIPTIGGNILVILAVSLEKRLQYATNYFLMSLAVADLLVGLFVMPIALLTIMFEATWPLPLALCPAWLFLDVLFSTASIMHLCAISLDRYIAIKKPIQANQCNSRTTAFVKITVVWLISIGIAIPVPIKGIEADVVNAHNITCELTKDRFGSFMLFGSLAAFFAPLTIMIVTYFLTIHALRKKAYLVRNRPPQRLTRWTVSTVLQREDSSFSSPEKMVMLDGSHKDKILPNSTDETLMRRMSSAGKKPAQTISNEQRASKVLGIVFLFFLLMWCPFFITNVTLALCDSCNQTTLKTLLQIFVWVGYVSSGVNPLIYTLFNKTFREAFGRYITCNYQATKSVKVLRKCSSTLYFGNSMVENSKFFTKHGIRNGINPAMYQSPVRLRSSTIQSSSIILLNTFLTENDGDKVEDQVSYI
The target of test [12] is GABA-A receptor; anion channel (Rattus norvegicus) (UniProt O09028+P15431+P18506+P18508+P19969+P20236+P23574+P23576+P28471+P28473+P30191+P62813+P63079+P63138+Q91ZM7+Q9ES14). The test can be described thus: Inhibition of [3H]GABA binding to gamma-aminobutyric-acid A (GABA-A) receptor of rat brain cerebellum at 10 uM. In kind it is tissue-based.
Test [13] concerns the target Adrenergic receptor beta (Rattus norvegicus) (UniProt P18090+P10608+P26255). Kind of test: Inhibitory constant (1 uM) was measured on beta adrenergic receptor/uptake using [3H]- dihydroalprenolol as radioligand in rat brain cortex. In kind it is tissue-based.
In test [14] the target is D(2) dopamine receptor (Rattus norvegicus) (UniProt P61169). Kind of test: Inhibitory constant (1 uM) was measured on dopamine receptor D2 using [3H]- spiperone as radioligand in rat brain striatum. In kind it is tissue-based.
D(2) dopamine receptor (Rattus norvegicus), sequence (P61169 whole entry): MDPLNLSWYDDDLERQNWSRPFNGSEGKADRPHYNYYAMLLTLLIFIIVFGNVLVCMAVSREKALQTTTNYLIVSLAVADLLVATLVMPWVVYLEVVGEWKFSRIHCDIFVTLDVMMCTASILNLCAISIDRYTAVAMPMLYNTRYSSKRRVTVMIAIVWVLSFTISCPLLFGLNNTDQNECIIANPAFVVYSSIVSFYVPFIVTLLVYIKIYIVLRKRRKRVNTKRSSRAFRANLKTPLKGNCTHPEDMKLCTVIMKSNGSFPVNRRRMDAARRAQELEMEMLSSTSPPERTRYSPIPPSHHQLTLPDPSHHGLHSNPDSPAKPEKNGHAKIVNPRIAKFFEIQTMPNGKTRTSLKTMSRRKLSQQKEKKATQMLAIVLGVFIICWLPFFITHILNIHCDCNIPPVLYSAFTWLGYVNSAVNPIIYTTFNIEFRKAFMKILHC
Test [15] has as its target Cannabinoid receptor (Rattus norvegicus) (UniProt Q9QZN9+P20272). The test can be described thus: Inhibitory constant (10 uM) was measured on cannabinoid receptor/uptake using [3H]CP-55940 as radioligand in rat brain cortex. In kind it is tissue-based.
Test [16] has as its target Adrenergic receptor alpha-1 (Rattus norvegicus) (UniProt P15823+P23944+P43140). The test can be described thus: Inhibitory constant (1 uM) was measured on alpha-1 adrenergic receptor/uptake using [3H]- WB-4101 as radioligand in rat brain cortex. In kind it is tissue-based.
Test [17] concerns the target T1, Adrenergic receptor alpha-2. Kind of test: Inhibitory constant was measured on alpha-2 adrenergic receptor /uptake using [3H]- clonidine as radioligand in rat brain cortex. In kind it is tissue-based.

Cannabinoid receptor (Rattus norvegicus), sequence (P20272 whole entry, looked up): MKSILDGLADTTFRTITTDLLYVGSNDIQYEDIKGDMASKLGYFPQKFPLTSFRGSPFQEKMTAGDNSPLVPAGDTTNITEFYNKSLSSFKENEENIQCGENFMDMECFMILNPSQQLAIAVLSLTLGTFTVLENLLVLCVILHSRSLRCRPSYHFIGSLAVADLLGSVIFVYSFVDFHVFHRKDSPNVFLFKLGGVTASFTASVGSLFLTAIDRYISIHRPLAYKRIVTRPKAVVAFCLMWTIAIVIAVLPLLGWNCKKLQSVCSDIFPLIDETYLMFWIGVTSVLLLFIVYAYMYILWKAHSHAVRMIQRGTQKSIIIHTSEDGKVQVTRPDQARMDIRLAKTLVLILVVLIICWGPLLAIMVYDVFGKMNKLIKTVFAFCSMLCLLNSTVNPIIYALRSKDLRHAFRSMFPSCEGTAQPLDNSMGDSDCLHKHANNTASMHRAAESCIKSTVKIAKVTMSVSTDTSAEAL
Cannabinoid receptor (Rattus norvegicus), sequence (Q9QZN9 whole entry, looked up): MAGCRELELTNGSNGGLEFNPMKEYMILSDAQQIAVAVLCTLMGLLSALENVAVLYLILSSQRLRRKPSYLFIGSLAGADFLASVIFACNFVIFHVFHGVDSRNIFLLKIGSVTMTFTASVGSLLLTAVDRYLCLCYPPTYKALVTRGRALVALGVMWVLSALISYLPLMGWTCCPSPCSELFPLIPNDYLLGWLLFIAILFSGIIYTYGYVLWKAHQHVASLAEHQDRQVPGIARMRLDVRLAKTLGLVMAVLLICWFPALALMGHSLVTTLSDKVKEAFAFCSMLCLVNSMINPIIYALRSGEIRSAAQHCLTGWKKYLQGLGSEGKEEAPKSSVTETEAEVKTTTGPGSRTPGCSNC

Take `Brc1cccc([C@H]2CC[C@H]3CCCCN32)c1.Cl`: in the test filed under Mus musculus [1], the ED50 entry was “inactive”. Moreover, the Response in the test on Mus musculus [2] was found to be 60%.
On to `C1CCC([C@H]2CC[C@H]3CCCCN32)CC1.Cl`, for which the Response is 60% in the test on Mus musculus [3] and 50% in the test on Mus musculus [4].
With `Cl.c1ccc(COc2ccc([C@H]3CC[C@H]4CCCCN43)cc2)cc1`, the 50% effect level in the test filed under Mus musculus [5] (ED50) was put at a dose of 16.8 mg/kg. Further, in the test on Mus musculus [2], the Response stood at 50%.
Turning to `Brc1ccc([C@H]2CC[C@H]3CCCCN32)cc1.Cl`, it took a dose of 18.8 mg/kg to reach the 50% effect level in the test listed under Mus musculus [5] (ED50). Further, in the test listed under Mus musculus [6], the ED50 entry is “inactive”.
As to `c1ccc(C2CCC3CCCN32)cc1` (stereo unspecified), the results for the ED50 in the test filed under Mus musculus [5] and with Mus musculus [7] were 5.7 mg/kg and more than 25 mg/kg, respectively.
In turn, `Brc1ccccc1[C@H]1CC[C@H]2CCCCN21.Cl` (racemic) showed a Ki in test [8] of 1120 nM.
On to `Brc1ccccc1[C@H]1CC[C@H]2CCCCN21` (racemic), for which the Response was 17% in [9]; 7% in test [10]; -18% in [11]; 2% in [12]; -3% in [13]; 0% in [14]. Besides, the Response was 1% in test [15] and 6% in test [16].
For the compound `Brc1ccccc1[C@H]1CC[C@H]2CCCCN21.Cl` (stereo in doubt; (+)2a), the Ki in [17] stood at 1200 nM. This counts as single-digit micromolar.
On to `Brc1ccccc1[C@H]1CC[C@H]2CCCCN21` (stereo in doubt; (+)2a), for which the Response in test [12] was 4%; in [13] it was -1%; in [15], 6%.
Compound `Brc1ccccc1[C@H]1CC[C@H]2CCCCN21.Cl` (stereo in doubt; (-)2a) had an inhibition constant Ki in [17] of 2840 nM.
On to `Brc1ccccc1[C@H]1CC[C@H]2CCCCN21` (stereo in doubt; (-)2a), for which the Response in [12] is -2%; in [13], -5%; in test [15], 2%.
As to `COc1ccc2c3c1O[C@H]1[C@@H](O)C=C[C@H]4[C@@H](C2)N(C)CC[C@@]341.COc1ccc2c3c1O[C@H]1[C@@H](O)C=C[C@H]4[C@@H](C2)N(C)CC[C@@]341.O.O=P(O)(O)O.O=P(O)(O)O` [CODEINE PHOSPHATE], the values for the ED50 in the test listed under Mus musculus [5] and in the test with Mus musculus [7] were 11.1 mg/kg and 30 mg/kg, respectively.
`CC(C)Cc1ccc(C(C)C(=O)O)cc1` (stereo unspecified) [IBUPROFEN] displayed an ED50 in the test filed under Mus musculus [5] of 15.7 mg/kg. The ED50 entry in the test listed under Mus musculus [6] was “inactive”.

The values are drawn from ChEMBL document CHEMBL1125504, “2-Substituted 1-azabicycloalkanes, a new class of non-opiate antinociceptive agents” (J Med Chem, 1992).
